Measurements as given in the supplement of paper PMC10307832.

Assays:
Experiment in all cases: relative viability (nuclei count vs DMSO), 5 days (fraction); higher = more cells survive
Fedratinib + Alpelisib = compound: Cc1cnc(Nc2ccc(OCCN3CCCC3)cc2)nc1Nc1cccc(S(=O)(=O)NC(C)(C)C)c1 [Fedratinib] + Cc1nc(NC(=O)N2CCC[C@H]2C(N)=O)sc1-c1ccnc(C(C)(C)C(F)(F)F)c1 [Alpelisib] (partner 2 µM)
Summary of the method: (§1)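 Each reported value is a median over duplicate plates. It expresses relative viability: treated-well nuclei count divided by vehicle-well nuclei count. Lung cancer cell lines in 1536-well plates were dosed by pin tool a day after seeding, alone with one drug or with a fixed anchor-drug dose plus five library-drug doses (not always all listed) in √10 steps, and nuclei were counted after 5 days.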

GW-2580 + Luminespib = compound: COC1=CC=C(C=C1)COC2=C(C=C(C=C2)CC3=CN=C(N=C3N)N)OC [GW-2580] + CCNC(=O)c1noc(-c2cc(C(C)C)c(O)cc2O)c1-c1ccc(CN2CCOCC2)cc1 [Luminespib] (partner 0.01 µM)
Summary of the method: as §1

Fedratinib + Vorinostat = compound: Cc1cnc(Nc2ccc(OCCN3CCCC3)cc2)nc1Nc1cccc(S(=O)(=O)NC(C)(C)C)c1 [Fedratinib] + O=C(CCCCCCC(=O)Nc1ccccc1)NO [Vorinostat] (partner 1 µM)
Summary of the method: as §1

GW-2580 + Dasatinib = compound: COC1=CC=C(C=C1)COC2=C(C=C(C=C2)CC3=CN=C(N=C3N)N)OC [GW-2580] + Cc1nc(Nc2ncc(C(=O)Nc3c(C)cccc3Cl)s2)cc(N2CCN(CCO)CC2)n1 [Dasatinib] (partner 0.075 µM)
Summary of the method: as §1

Row | Cell Line | relative viability (Fedratinib + Alpelisib; first compound 0.1 µM) | relative viability (Fedratinib + Alpelisib; first compound 0.3162 µM) | relative viability (Fedratinib + Alpelisib; first compound 1 µM) | relative viability (GW-2580 + Luminespib; first compound 0.08 µM) | relative viability (GW-2580 + Luminespib; first compound 0.8 µM) | relative viability (GW-2580 + Luminespib; first compound 2.53 µM) | relative viability (GW-2580 + Luminespib; first compound 8 µM) | relative viability (Fedratinib + Vorinostat; first compound 0.1 µM) | relative viability (Fedratinib + Vorinostat; first compound 0.3162 µM) | relative viability (Fedratinib + Vorinostat; first compound 1 µM) | relative viability (GW-2580 + Dasatinib; first compound 0.08 µM) | relative viability (GW-2580 + Dasatinib; first compound 0.8 µM) | relative viability (GW-2580 + Dasatinib; first compound 2.53 µM) | relative viability (GW-2580 + Dasatinib; first compound 8 µM)
1 | NCI-H661 | 0.835 | 0.452 | 0.629 | 0.978 | 0.996 | 0.931 | 0.704 | 0.785 | 0.833 | 0.716 | 0.983 | 0.943 | 0.689 | 0.685
2 | PC-3 [JPC-3] | 0.985 | 1.01 | 1.09 | 0.719 | 0.774 | 0.544 | 0.705 | 0.719 | 0.978 | 0.676 | 0.986 | 1.14 | 0.845 | 1.03
3 | LC-2-ad | 0.932 | 0.879 | 0.772 | 1.03 | 1.07 | 1.12 | 1.02 | 0.582 | 0.804 | 0.705 | 0.715 | 0.771 | 0.737 | 0.55
4 | CAL-12T | 1.13 | 1.16 | 1.06 | 0.335 | 0.439 | 0.347 | 0.575 | 0.747 | 0.84 | 0.681 | 0.485 | 0.443 | 0.438 | 0.505
5 | RERF-LC-KJ | 0.792 | 0.86 | 0.756 | 1.23 | 1.56 | 1.35 | 1.14 | 0.66 | 0.669 | 0.573 | 0.896 | 0.893 | 0.797 | 0.71
6 | BEN | 0.83 | 0.972 | 0.891 | 0.353 | 0.332 | 0.29 | 0.264 | 0.544 | 0.577 | 0.55 | 0.267 | 0.397 | 0.222 | 0.308
7 | EMC-BAC-2 | 0.85 | 0.754 | 0.711 | 1.27 | 1.3 | 1.17 | 1.11 | 0.418 | 0.566 | 0.317 | 0.317 | 0.308 | 0.264 | 0.316
8 | LU99A | 0.55 | 0.518 | 0.387 | 0.289 | 0.241 | 0.193 | 0.273 | 0.454 | 0.513 | 0.41 | 0.609 | 0.651 | 0.472 | 0.465
9 | ABC-1 | 0.979 | 0.994 | 1.12 | 0.637 | 0.505 | 0.391 | 0.518 | 0.983 | 1.06 | 0.888 | 0.559 | 0.675 | 0.55 | 0.534
10 | NCI-H2170 | 0.835 | 0.809 | 0.654 | 0.827 | 0.572 | 0.851 | 0.594 | 0.886 | 0.776 | 0.654 | 0.752 | 0.769 | 0.587 | 0.672
11 | NCI-H2347 | 1.04 | 1.04 | 1 | 0.491 | 0.656 | 0.369 | 0.471 | 0.533 | 0.494 | 0.587 | 0.341 | 0.294 | 0.244 | 0.271
12 | NCI-H1993 | 0.612 | 0.755 | 0.65 | 0.853 | 0.907 | 0.71 | 0.852 | 0.819 | 0.872 | 0.864 | 0.611 | 0.606 | 0.524 | 0.568
13 | NCI-H322M | 0.814 | 0.75 | 0.771 | 0.868 | 0.887 | 0.805 | 0.903 | 0.87 | 0.969 | 0.735 | 0.247 | 0.24 | 0.263 | 0.253
14 | NCI-H838 | 0.979 | 0.954 | 0.954 | 0.266 | 0.31 | 0.376 | 0.338 | 0.713 | 0.693 | 0.575 | 0.295 | 0.344 | 0.241 | 0.316
15 | HARA | 0.84 | 0.793 | 0.743 | 0.882 | 0.801 | 0.389 | 0.596 | 0.512 | 0.629 | 0.51 | 0.276 | 0.253 | 0.261 | 0.0615
16 | NCI-H2087 | 1.03 | 1.05 | 0.963 | 0.133 | 0.179 | 0.174 | 0.164 | 0.728 | 0.734 | 0.825 | 1.11 | 0.846 | 0.785 | 0.774
17 | NCI-H1437 | 0.826 | 0.975 | 0.859 | 1.17 | 1.16 | 1.05 | 0.786 | 0.816 | 0.892 | 0.922 | 0.422 | 0.411 | 0.36 | 0.271
18 | NCI-H650 | – | 1.03 | 0.865 | 0.872 | 0.857 | 0.676 | 0.618 | 0.381 | 0.42 | 0.332 | 0.468 | 0.538 | 0.396 | 0.424
19 | COR-L23 | 0.752 | 0.74 | 0.778 | 0.875 | 0.774 | 0.828 | 0.808 | 0.407 | 0.487 | 0.392 | 0.566 | 0.502 | 0.519 | 0.464

Row | Cell Line | relative viability (Fedratinib + Alpelisib; first compound 0.1 µM) | relative viability (Fedratinib + Alpelisib; first compound 0.3162 µM) | relative viability (Fedratinib + Alpelisib; first compound 1 µM) | relative viability (GW-2580 + Luminespib; first compound 0.08 µM) | relative viability (GW-2580 + Luminespib; first compound 0.8 µM) | relative viability (GW-2580 + Luminespib; first compound 2.53 µM) | relative viability (GW-2580 + Luminespib; first compound 8 µM) | relative viability (Fedratinib + Vorinostat; first compound 0.1 µM) | relative viability (Fedratinib + Vorinostat; first compound 0.3162 µM) | relative viability (Fedratinib + Vorinostat; first compound 1 µM) | relative viability (GW-2580 + Dasatinib; first compound 0.08 µM) | relative viability (GW-2580 + Dasatinib; first compound 0.8 µM) | relative viability (GW-2580 + Dasatinib; first compound 2.53 µM) | relative viability (GW-2580 + Dasatinib; first compound 8 µM)
20 | COR-L 105 | 1.04 | 1.06 | 0.793 | 0.63 | 0.588 | 0.681 | 0.647 | 0.825 | 0.904 | 0.676 | 0.314 | 0.373 | 0.28 | 0.342
21 | LK-2 | – | 0.936 | 0.936 | 0.16 | 0.173 | 0.238 | 0.175 | 0.37 | 0.242 | 0.303 | 0.288 | 0.281 | 0.282 | 0.295
22 | 201T | 1.04 | 0.974 | 0.99 | 1.04 | 1.04 | 1.08 | 0.988 | 0.935 | 0.975 | 0.955 | 0.637 | 0.544 | 0.509 | 0.532
23 | NCI-H596 | 0.459 | 0.576 | 0.506 | 0.987 | 1.03 | 0.998 | 0.913 | 0.602 | 0.573 | 0.439 | 0.625 | 0.543 | 0.7 | 0.688
24 | H3255 | 0.458 | 0.715 | 0.652 | 0.825 | 1.1 | 0.84 | 0.67 | 0.84 | 0.876 | 0.696 | 0.287 | 0.436 | 0.345 | 0.281
25 | NCI-H647 | 1.13 | 1.09 | 0.809 | 0.128 | 0.323 | 0.136 | 0.205 | 0.61 | 0.782 | 0.385 | 0.189 | 0.16 | 0.11 | 0.224
26 | NCI-H2023 | 0.578 | 0.629 | 0.56 | 0.932 | 1.07 | 1.26 | 0.717 | 0.826 | 0.626 | 0.547 | 0.636 | 0.652 | 0.542 | 0.587
27 | NCI-H23 | 0.585 | 0.743 | 0.598 | 0.226 | 0.194 | 0.213 | 0.191 | 0.56 | 0.36 | 0.453 | 0.847 | 0.921 | 0.757 | 0.792
28 | NCI-H1944 | 0.804 | 0.945 | 0.716 | 0.692 | 0.767 | 0.7 | 0.628 | 0.668 | 0.571 | 0.516 | 0.207 | 0.224 | 0.203 | 0.212
29 | NCI-H1793 | 0.746 | 0.683 | 0.627 | 0.187 | 0.238 | 0.162 | 0.151 | 0.749 | 0.621 | 0.515 | 0.415 | 0.451 | 0.355 | 0.399
30 | NCI-H520 | 0.912 | 0.845 | 0.805 | 0.224 | 0.202 | 0.196 | 0.274 | 0.657 | 0.654 | 0.634 | 0.203 | 0.238 | 0.204 | 0.252
31 | NCI-H460 | 0.536 | 0.581 | 0.259 | 0.0341 | 0.0427 | 0.0355 | 0.0322 | 1.14 | 0.768 | 0.736 | 0.574 | 0.722 | 0.452 | 0.512
32 | EKVX | 0.898 | 1.04 | 0.931 | 0.93 | 0.936 | 0.863 | 0.923 | 0.736 | 0.737 | 0.728 | 0.613 | 0.655 | 0.431 | 0.527
33 | NCI-H358 | 0.773 | 0.768 | 0.466 | 0.34 | 0.344 | 0.364 | 0.463 | 0.656 | 0.654 | 0.634 | 0.173 | 0.199 | 0.159 | 0.115
34 | EPLC-272H | 1.05 | 0.915 | 0.914 | 0.274 | 0.204 | – | 0.243 | 0.547 | 0.375 | 0.335 | 0.353 | 0.385 | – | 0.283
35 | NCI-H1395 | 0.885 | 1 | 1.39 | 0.723 | 0.665 | 0.648 | 0.59 | 0.588 | 0.807 | 0.561 | 0.41 | 0.409 | 0.401 | 0.427
36 | NCI-H2126 | 0.745 | 0.719 | 0.786 | 0.96 | 1 | 0.907 | 0.825 | 0.732 | 0.786 | 0.708 | 0.599 | 0.736 | 0.627 | 0.522
37 | LXF-289 | 1.06 | 0.997 | 1.05 | 0.719 | 0.732 | 0.684 | 0.616 | 0.765 | 0.748 | 0.775 | 0.208 | 0.267 | 0.177 | 0.217
38 | NCI-H2009 | 1.21 | 1.2 | 1.1 | 1.15 | 1.11 | 0.999 | 0.876 | 0.639 | 0.696 | 0.695 | 0.319 | 0.305 | 0.299 | 0.27
